We go through five compounds from ChEMBL document CHEMBL1137602, “Synthesis of aromatic compounds containing a 1,1-dialkyl-2-trifluoromethyl group, a bioisostere of the tert-alkyl moiety” (Bioorg Med Chem Lett, 2007).

Data set [1] is described as follows: Intrinsic clearance in human liver microsomes. It counts as ADME, Microsome. For orientation: Liver microsomes are vesicles of endoplasmic reticulum, rich in cytochrome P450 enzymes.
Data set [2] has as its target Transient receptor potential cation channel subfamily V member 1 (Homo sapiens, UniProt Q8NER1). The data set is described as follows: Antagonist activity at human TRPV1 receptor. The class given is functional.
The subject of data set [3] is Liver microsomes. Description: Metabolic stability in human liver microsomes. The class given is ADME, Microsome.

Transient receptor potential cation channel subfamily V member 1, sequence (Q8NER1 whole entry): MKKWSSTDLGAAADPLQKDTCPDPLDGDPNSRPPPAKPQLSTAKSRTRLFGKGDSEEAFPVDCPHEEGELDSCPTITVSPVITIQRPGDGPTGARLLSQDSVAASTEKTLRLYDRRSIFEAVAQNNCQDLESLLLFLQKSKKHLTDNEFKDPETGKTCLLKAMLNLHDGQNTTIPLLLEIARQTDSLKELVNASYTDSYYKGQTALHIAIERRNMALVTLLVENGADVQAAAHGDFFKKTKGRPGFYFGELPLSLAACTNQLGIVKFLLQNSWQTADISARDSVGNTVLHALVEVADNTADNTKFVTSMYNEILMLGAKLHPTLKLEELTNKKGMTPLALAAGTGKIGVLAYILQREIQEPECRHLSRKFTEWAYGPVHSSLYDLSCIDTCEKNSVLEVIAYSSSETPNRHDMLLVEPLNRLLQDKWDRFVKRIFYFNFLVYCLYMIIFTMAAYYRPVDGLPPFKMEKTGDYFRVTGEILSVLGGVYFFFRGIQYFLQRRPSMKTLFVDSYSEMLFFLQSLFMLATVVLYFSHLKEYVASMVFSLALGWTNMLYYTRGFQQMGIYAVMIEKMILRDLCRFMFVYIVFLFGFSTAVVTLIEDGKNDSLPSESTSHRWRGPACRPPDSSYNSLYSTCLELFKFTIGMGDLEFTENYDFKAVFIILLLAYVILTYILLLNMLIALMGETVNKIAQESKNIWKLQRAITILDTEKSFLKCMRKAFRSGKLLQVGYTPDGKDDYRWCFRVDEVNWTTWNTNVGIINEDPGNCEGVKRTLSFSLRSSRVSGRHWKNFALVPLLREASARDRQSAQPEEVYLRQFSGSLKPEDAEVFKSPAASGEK

As usually defined, the CLint scaled is the capacity of the preparation to metabolise the compound, expressed as a volume cleared per time. Read a high CLint scaled as faster metabolism. The IC50 is the concentration at which inhibition is half-maximal. Higher therefore signals weaker potency in that assay. As for `CC(C)(C)c1ccc(NC(=O)c2ccc(-c3ncccc3Cl)cc2)cc1`, in data set [1], the CLint scaled was found to be 168 mL/min/kg. The same compound returned an IC50 in data set [2] of 37 nM.

`O=C(Nc1ccc(C(F)(F)F)cc1)c1ccc(-c2ncccc2Cl)cc1` displayed an intrinsic metabolic clearance (CLint scaled) in data set [1] of less than 10.5 mL/min/kg. In data set [2], this compound had an IC50 of 200 nM.

Compound `CC(C)(c1ccc(NC(=O)c2ccc(-c3ncccc3Cl)cc2)cc1)C(F)(F)F` displayed a CLint scaled in data set [1] of 46 mL/min/kg. This compound registered an IC50 in data set [2] of 42 nM. Besides, in data set [3], the result was Active.

As a reminder, the microsomal CLint is the rate of metabolic loss divided by the concentration. Low readings indicate greater metabolic stability, high ones faster metabolism. `COc1ccc(C(C)(C)C(F)(F)F)cc1CN[C@H]1CCCN[C@H]1c1ccccc1`: the microsomal CLint in data set [1] was found to be 44.7 µL/min/mg. The outcome in data set [3] was Active.

Regarding `COc1ccc(C(C)(C)C)cc1CN[C@H]1CCCN[C@H]1c1ccccc1`, in data set [1], the microsomal CLint was 87.9 µL/min/mg.
